ChEMBL document CHEMBL1146932, “A series of 23,24-dihydrodiscodermolide analogues with simplified lactone regions” (2006)

Experiments:
Type in all cases: functional
Conditions in all cases: Homo sapiens
A549 [1] = experiment: Antiproliferative activity against A549 cell line
MCF7 = experiment: Antiproliferative activity against MCF7 cell line
NCI/ADR-RES = experiment: Antiproliferative activity against NCI/ADR cell line
A549 [2] = experiment: Antiproliferative activity against A549t12 cell line
CCRF-CEM [3] = experiment: Antiproliferative activity against CCRF-CEM cell line
CCRF-CEM [4] = experiment: Antiproliferative activity against resistant CCRF-CEM/PTX cell line
CCRF-CEM [5] = experiment: Antiproliferative activity against resistant CCRF-CEM/VP16 cell line
CCRF-CEM [6] = experiment: Antiproliferative activity against resistant CCRF-CEM/VBL cell line

| SMILES | GI50 (A549 [1]) [nM] | GI50 (MCF7) [nM] | GI50 (NCI/ADR-RES) [nM] | GI50 (A549 [2]) [nM] | GI50 (CCRF-CEM [3]) [nM] | GI50 (CCRF-CEM [4]) [nM] | GI50 (CCRF-CEM [5]) [nM] | GI50 (CCRF-CEM [6]) [nM] |
| --- | --- | --- | --- | --- | --- | --- | --- | --- |
| CC/C=C\[C@H](C)[C@H](OC(N)=O)[C@@H](C)[C@H](O)[C@@H](C)C/C(C)=C\[C@H](C)[C@@H](O)[C@@H](C)/C=C\[C@@H](O)C[C@@H]1OC(=O)[C@H](C)[C@@H](O)[C@H]1C | 7 | 6.2 | 190 | – | – | – | – | – |
| CC/C=C\[C@H](C)[C@H](OC(N)=O)[C@@H](C)[C@H](O)[C@@H](C)C/C(C)=C\[C@H](C)[C@@H](O)[C@@H](C)/C=C\[C@@H](O)C[C@H](O)[C@H](C)C[C@H](C)C(=O)OC | 4000 | 1000 | 10000 | 4000 | – | – | – | – |
| CC/C=C\[C@H](C)[C@H](OC(N)=O)[C@@H](C)[C@H](O)[C@@H](C)C/C(C)=C\[C@H](C)[C@@H](O)[C@@H](C)/C=C\[C@@H](O)C[C@@H]1OC(=O)[C@H](C)[C@@H](OC)[C@H]1C | 6.5 | 3.8 | 250 | 12 | 4.4 | 79 | 8.4 | 416 |
| C=C/C=C\[C@H](C)[C@H](OC(N)=O)[C@@H](C)[C@H](O)[C@@H](C)C/C(C)=C\[C@H](C)[C@@H](O)[C@@H](C)/C=C\[C@@H](O)C[C@@H]1OC(=O)[C@H](C)[C@@H](O)[C@H]1C [DISERMOLIDE] | 22 | 28 | 240 | 30 | 16 | 92 | 52 | 158 |
| CC/C=C\[C@H](C)[C@H](OC(N)=O)[C@@H](C)[C@H](O)[C@@H](C)C/C(C)=C\[C@H](C)[C@@H](O)[C@@H](C)/C=C\[C@@H](O)C[C@H](O)[C@H](C)CO | 3000 | 1000 | 10000 | 5000 | – | – | – | – |
| CC/C=C\[C@H](C)[C@H](OC(N)=O)[C@@H](C)[C@H](O)[C@@H](C)C/C(C)=C\[C@H](C)[C@@H](O)[C@@H](C)/C=C\[C@@H](O)C[C@@H]1OC(=O)[C@H](C)C[C@H]1C | 11 | 5.8 | 140 | 50 | 8.6 | 65 | 12 | 209 |
| CC/C=C\[C@H](C)[C@H](OC(N)=O)[C@@H](C)[C@H](O)[C@@H](C)C/C(C)=C\[C@H](C)[C@@H](O)[C@@H](C)/C=C\[C@@H](O)C[C@H]1CCC(=O)O1 | 46 | 6.4 | 730 | 63 | 6.5 | 285 | 7.1 | 3810 |
| CC/C=C\[C@H](C)[C@H](OC(N)=O)[C@@H](C)[C@H](O)[C@@H](C)C/C(C)=C\[C@H](C)[C@@H](O)[C@@H](C)/C=C\[C@@H](O)C[C@@H]1OC(=O)NC[C@H]1C | 520 | 110 | 10000 | 1000 | – | – | – | – |
| CC/C=C\[C@H](C)[C@H](OC(N)=O)[C@@H](C)[C@H](O)[C@@H](C)C/C(C)=C\[C@H](C)[C@@H](O)[C@@H](C)/C=C\[C@H](O)C[C@@H]1CCC(=O)O1 | 4000 | 2000 | 10000 | 10000 | – | – | – | – |
